From patent publication US20210054323A1, “INNERVATED INTESTINE ON CHIP” (EMULATE, Inc., priority 2018, published 2021)

How the values were obtained:
[1] = tested on: human iPS-derived sensory neurons (Nociceptors); test: Live calcium imaging (Fluo-4 AM) of Nociceptors on-chip after capsaicin irritation; type: cell-based; details: capsaicin 1 μM, sensory neurons in apical channel
Description: Irritation (as pain simulation) to sensory neurons on-chip was induced by capsaicin (1 μM in DMEM/F12 with 10% FBS, supplemented with BDNF, GDNF, NGF, NT-3 (25 ng/ml each) and Ascorbic Acid (200 μM)) in order to recapitulate the sensation of burning (heat) felt by humans exposed to capsaicin. Nociceptors responded to capsaicin, as shown by live imaging of calcium using Fluo-4 AM, see FIGS. 28C and 28D. Fluo-4 AM refers to a calcium sensitive fluorescent dye, loaded onto the sensory neurons. Intracellular calcium fluctuations were monitored over time using high-speed imaging. Acquisition protocols, for the example shown herein, consisted of 5-minute time-lapse sequences of Fluo-4 fluorescence. Alterations in fluorescence as a function of time were measured at a single wavelength (Fluo-4). Analysis and processing, as well as playback of the image sequences for visual inspection, was made using ImageJ/FIJI software. To visualize the spatial and temporal changes in, the raw sequences were processed to highlight changes in fluorescence intensity between frames. Regions of interest over the field of view were selected, and the mean pixel intensity at each frame was measured. The data was first plotted as fluorescence intensity versus and subsequently converted to a relative scale (ΔF/F baseline)

[2] = tested on: human iPS-derived sensory neurons (Nociceptors); test: Substance P release into apical channel effluent of Nociceptors-Chip; type: cell-based
Description: Chemical stimulation of Nociceptors with Capsaicin (e.g. 1 μM), perfused for 3 hours, was followed by effluent collected from the apical channel (neuronal). This Capsaicin treatment elicited the release of substance P, a pain neurotransmitter. […] This model was further developed, as described herein, successfully simulating the process of sensitization that leads to pathological pain by the addition of inflammatory mediators to endothelial media perfused through the vascular channel. As one example, 5 μM each of Prostaglandin E2, bradykinin, serotonin and histamine in Vascular Cell Basal Medium (ATCC® PCS-100-030™) with Microvascular Endothelial Cell Growth Kit-VEGF (ATCC® PCS-110-041™) was perfused through the vascular channel. In other words, this model is intended to simulate peripheral sensitization of Nociceptors. Capsaicin (200 nM) and inflammatory mediators (each 5 μM) were perfused for 3 hours, and the effluents were collected from the apical channel (neuronal). See, FIG. 30A for an exemplary schematic diagram. […] At the same time, inflammatory mediators, i.e. Prostaglandin E2, bradykinin, serotonin and histamine (each 5 μM in media), were added to the inlet of the basal channel. The effluent was collected from the outlet of the apical channel after 3 hours (t=3 h).

[3] = tested on: Human Dermal Microvascular Endothelial Cells (HMVEC-D); test: Vascular permeability, 3 kDa Dextran leakage from basal into apical channel of Nociceptors-Chip; type: cell-based; details: capsaicin 200 nM apical, simultaneously with inflammatory mediators (each 5 μM) basal, 3 hours
Description: In one embodiment, endothelial cells were seeded into the basal channel, e.g. Human Dermal Microvascular Endothelial Cells (HMVEC-D), i.e. Primary Dermal Microvascular Endothelial Cells; Normal, Human, Neonatal (HDMVECn) (e.g. ATCC® PCS-110-010™). However, it is not meant to limit the source of HMVEC, such that Primary Dermal Microvascular Endothelial Cells may be obtained from neonatal biopsies, e.g. foreskins. Prior to seeding, basal channels were coated with a thin rat collagen coating. Rat collagen was diluted in distillated water to obtain a final protein concentration at 150 μg/mL−1. The basal channel was coated by incubating the channel in collagen solution at 4° C. overnight. Unattached rat collagen was washed away with PBS, then culture medium was flowed in to cover the coated membrane to replace the PBS.
This model was further developed, as described herein, successfully simulating the process of sensitization that leads to pathological pain by the addition of inflammatory mediators to endothelial media perfused through the vascular channel. […]
Another readout is obtained by using Dextran (3 kDa) permeability, where Dextran is added to the basal channel then after 24 hours, effluent from the apical channel was collected for measuring the amount of Dextran that diffused through the endothelial barrier into the neuronal channel. […]

[4] = tested on: iPSC-derived human brain microvascular endothelial cells; test: Inflamed Brain-Chip: endothelial morphology (ZO-1) and Dextran leakage after TNF-α in vascular channel; type: cell-based
Description: In one embodiment to provide an innervated human brain chip having intact barrier function, induced pluripotent stem cells (iPSC)-derived cortical neurons, including populations of Glutamatergic neurons and GABAergic neurons, human primary astrocytes, and human primary pericytes were seeded into the neuronal channel (upper chamber), and iPSC-derived human brain microvascular endothelial cells in the vascular channel (lower chamber).
The vascular channel was directly stimulated the vascular channel at two concentrations of TNF-α.

astrocytes = test: Brain-Chip GFAP expression after TNF-α perfused into neuronal channel; type: cell-based, human; details: TNF-α 100 ng/ml perfused into neuronal channel; up to 24 hours after stimulation
Description: TNF-α (100 ng/ml) or vehicle was perfused into the neuronal channel.

endothelial cells = test: Real-time TEER measurement in BBB-chip; type: cell-based; details: BBB-chip under flow, after TNF-a challenge
Description: TEER measures the resistance to pass current across one or more cell layers on a membrane. Specifically, this electrical resistance is a direct measurement of the resistance of the cell monolayer to the transport of ions. The measurement may be affected by the pore size and density of the membrane, but it aims to ascertain cell and/or tissue properties. The TEER value is considered a good measure of the integrity of a cell monolayer.
The barrier function of the same BBB-chip measured by flowing a fluorescent molecule on one side of the chip and measuring how much of the molecules crosses the endothelial cells, FIG. 23B (middle). The resolution of this measurement is limited by the time it takes for a sufficient sample to flow through the chip. A model of an exemplary TEER-Chip design FIG. 23C (right) utilizing electrodes oriented in a manner that allows electrical resistance of the cells on the membrane to be measured in real-time.

Molecule	Nociceptor response by live imaging of calcium, change in fluorescence (ΔF/F) [1]	Substance P released in the apical channel effluent ([2]; capsaicin 200 nM apical, with inflammatory mediators (Prostaglandin E2, bradykinin, serotonin, histamine, each 5 μM) basal, 3 hours)	Substance P released in the apical channel effluent ([2]; capsaicin 1 μM perfused through apical channel for 3 hours)	Vascular permeability (leakage of 3 kDa Dextran into the apical channel) [3]	Percent leakage of Dextran into the apical channel (paracellular permeability) vs control ([4]; TNF-α 100 ng/ml and 1 ug/ml in vascular channel, 16 hours)	Endothelial cell morphology (ZO-1 expression) ([4]; TNF-α in vascular channel for 16 hours, 100 ng/ml and 1 ug/ml)	GFAP expression (optical intensity of GFAP staining) (astrocytes)	Barrier function by real-time TEER (endothelial cells)
COc1cc(CNC(=O)CCCC/C=C/C(C)C)ccc1O [capsaicin, trans-8-methyl-N-vanillyl-6-nonenamide]	responded	significant increase	significant increase	significant increase				
TNF-α					significantly higher	induces changes	significantly increases	abrupt drop
